In patent US9169262B2, “Crystalline salts of Asenapine with organic di-acids and tri-acids” (SANDOZ AG, priority 2011, dated 2015):
Counter-ions that a name gives are not always drawn.

How the values were obtained:
[1] = Water uptake / hygroscopicity by dynamic vapor sorption; assay type: physicochemical; details: for hygroscopic nature: dynamic vapor sorption; for water uptake (dynamic vapor sorption): up to 95% rel. humidity, citrate: most uptake above 80% relative humidity
From the text: The hygroscopic nature of the citrate salt was investigated by dynamic vapor sorption.

[2] = Polymorphic stability: suspension equilibration in water, PXRD; assay type: physicochemical; details: 25° C., 600 rpm, two days
[3] = Polymorphic stability: stirring in acetonitrile or organic solvent mixture, PXRD; details: for polymorph conversion in acetonitrile (PXRD): suspension in acetonitrile, room temperature, five days; for polymorph conversion in acetonitrile-acetone 1:1 (PXRD): suspension stirred at room/ambient temperature, four days
Description: The stability test is carried out by stirring the sample salt at 600 rpm in an amount of approximately 0.1 g/ml acetonitrile and optionally water as defined above. After 96 hours of stirring, the salt is removed by filtration and is dried and then subjected to X-ray powder diffraction analysis.

[4] = Solubility of Asenapine maleate in saturated solution (literature, Funke et al.); assay type: physicochemical; details: saturated aqueous solution, water, thermodynamic from solid; maleate solubility at 23° C., pH=4.4, translated into free base
From the text: Certain crystalline addition salts of Asenapine, for instance a fumarate (EP 0569096), salts with sulfonic acids (WO98/54186), and a pamoate or hemipamoate salt (EP569096), are described in the literature. The pamoate salt is disclosed to be amorphous and the hemipamoate salt is a mixture of amorphous and crystalline phase, wherein the palmitate is described as oil. The marketed form is the maleate salt, which is disclosed to exist in polymorphic forms (WO 2006/106135). The known Asenapine salts have a low solubility in water.

[5] = 23° C., pH=4.4; cited from earlier work
[6] = listed as Asenapine citrate of the invention

Structure (SMILES): CN1C[C@H]2c3ccccc3Oc3ccc(Cl)cc3[C@@H]2C1.O=C(O)CC(O)(CC(=O)O)C(=O)O [crystalline Asenapine citrate form I]
- hygroscopic nature [1]: not or only very slightly hygroscopic
- water uptake (dynamic vapor sorption) [1]: about 1.5%
- polymorph conversion in water suspension (PXRD) [2]: no phase transformation was observed
- polymorph conversion in water suspension (PXRD) [2, 6]: does not change its polymorphic form
- polymorph conversion in acetonitrile (PXRD) [3]: no phase transformation was observed
- polymorph conversion in acetonitrile (PXRD) [3, 6]: does not change its polymorphic form

Structure (SMILES): CN1CC2c3ccccc3Oc3ccc(Cl)cc3C2C1.O=C(O)CC(=O)O (centres unmarked) [crystalline Asenapine malonate form I]
- hygroscopic nature [1]: completely non-hygroscopic
- water uptake (dynamic vapor sorption) [1]: less than 0.2%
- polymorph conversion in water suspension (PXRD) [2]: no phase transformation was observed
- polymorph conversion in water suspension (PXRD) ([2]; listed as crystalline malonate of the invention): no polymorph conversion was observed
- polymorph conversion in acetonitrile-acetone 1:1 (PXRD) [3]: no phase transformation was observed
- polymorph conversion in acetonitrile-acetone 1:1 (PXRD) ([3]; listed as crystalline Asenapine malonate of the invention): No polymorph conversion

Structure (SMILES): CN1CC2c3ccccc3Oc3ccc(Cl)cc3C2C1 (centres unmarked) [maleate salt of Asenapine]
- solubility [4]: ~4100 µg/mL
- concentration of saturated solution [5]: 5800 µg/mL
